Assays:
Assay in all cases: relative viability (nuclei count vs DMSO), 5 days (fraction); higher = more cells survive
[1] = compound: COC1=CC=C(C=C1)CN2C=CC3=C2C=C(C=C3)C(=O)NO + Cc1nc(NC(=O)N2CCC[C@H]2C(N)=O)sc1-c1ccnc(C(C)(C)C(F)(F)F)c1 [Alpelisib] (partner 2 µM)
Procedure, shortened: (§1)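 One day after seeding in 1536-well plates, lung cancer cell lines were dosed by pin tool. Dosing was either single-drug or a fixed anchor-drug dose plus five library-drug doses (not always all listed) in √10 steps. After 5 days, nuclei were stained in one fix-and-stain step and counted on 4× images, and relative viability is the nuclei count of treated wells over that of vehicle wells, given as the median of duplicate plates.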

[2] = compound: COC1=CC=C(C=C1)CN2C=CC3=C2C=C(C=C3)C(=O)NO + Nc1nc2[nH]cc(CCc3ccc(C(=O)N[C@@H](CCC(=O)O)C(=O)O)cc3)c2c(=O)[nH]1 [Pemetrexed] (partner 0.2 µM)
Procedure, shortened: as §1

[3] = compound: COC1=CC=C(C=C1)CN2C=CC3=C2C=C(C=C3)C(=O)NO + O=C(c1cc(Cc2n[nH]c(=O)c3ccccc23)ccc1F)N1CCN(C(=O)C2CC2)CC1 [Olaparib] (partner 8 µM)
Procedure, shortened: as §1

[4] = compound: C[C@]1(c2nc3c(C(N)=O)cccc3[nH]2)CCCN1 [Veliparib] + Cc1nc(Nc2ncc(C(=O)Nc3c(C)cccc3Cl)s2)cc(N2CCN(CCO)CC2)n1 [Dasatinib] (partner 0.075 µM)
Procedure, shortened: as §1

Cell Line: SW 1573
- relative viability ([1]; first compound 0.253 µM): 0.824
- relative viability ([1]; first compound 0.8 µM): 0.734
- relative viability ([1]; first compound 2.53 µM): 0.72
- relative viability ([1]; first compound 8 µM): 0.787
- relative viability ([2]; first compound 0.253 µM): 0.906
- relative viability ([2]; first compound 0.8 µM): 0.82
- relative viability ([2]; first compound 2.53 µM): 0.853
- relative viability ([2]; first compound 8 µM): 0.803
- relative viability ([3]; first compound 0.253 µM): 0.543
- relative viability ([3]; first compound 0.8 µM): 0.465
- relative viability ([3]; first compound 2.53 µM): 0.432
- relative viability ([3]; first compound 8 µM): 0.334
- relative viability ([4]; first compound 0.06325 µM): 0.659
- relative viability ([4]; first compound 0.2 µM): 0.38
- relative viability ([4]; first compound 0.6325 µM): 0.391
- relative viability ([4]; first compound 2 µM): 0.439
